In patent US20240057596A1 (priority 2021, published 2024):
Read-outs that look alike come from different tables or passages of the source.

Experiments:
[1] = test system: Rhizoctonia solani; experiment: field trial sheath blight on rice in Thailand, percentage disease; assay type: in vivo; details: 750 g/ha, 2 sprays at 7 day interval; for percentage of disease (%): location L1; for percentage of sheath blight disease (%): location L2
Protocol: A field trial was established to test the efficacy of different compositions for control of sheath blight (Rhizoctonia solani) on rice in Thailand at two locations: L1: Bang Kham, Sriprachan, Suphanburi; and L2: Don Pru, Sriprachan, Suphanburi. Disease inoculation was performed 14 days before 1st spray.
(§1) At location L1, experimental design was randomize complete block (RCB); number of different treatments: six as provided in Table 11; number of replications: 4; plot size: 6×5 m/plot; rice variety: PTT1; and spray volume: 312.5 L/ha. One treatment had 4 replications, with one replication having 10 samplings.
Data assessments included percentage of length (cm) of the symptom infected and length of the plant (cm) before 1st spray; before 2nd spray; 7 days after 2nd spray; at 2 weeks after 2nd spray; at 3 weeks after 2nd spray; and at 2 weeks before harvest.
The percentage disease was calculated as follows:
Disease (%)=[length of infection symptom (cm)/length of plant (cm)]×100
as §1, with “L2,” for “L1,”
Data assessments included percentage of length (cm) of the symptom infected and length of the plant (cm) before 1st spray; before 2nd spray; 7 days after 2nd spray; 2 weeks after 2nd spray; at 3 weeks after 2nd spray; and at 2 weeks before harvest.

[2] = test system: rice plants; assay type: in vivo, rice variety: PTT1; details: 750 g/ha; for Yield (kg/plot): plot 9 m2, 120 DAS

Cc1cccc2sc3nncn3c12 [Tricyclazole]
percentage of disease (%) ([1]; 2 WBH (106 DAS)): 35.63 b % | percentage of disease (%) ([1]; 7 DAA#2 (89 DAS)): 35.66 bc % | percentage of disease (%) ([1]; 14 DAA#2 (96 DAS)): 37.90 c % | percentage of disease (%) ([1]; 21 DAA#2 (103 DAS)): 35.89 c % | percentage of disease (%) ([1]; BA#1 (before 1st spray, 75 DAS)): 22.57 a % | percentage of disease (%) ([1]; BA#2 (before 2nd spray, 82 DAS)): 40.05 bc % | percentage of sheath blight disease (%) ([1]; 2 WBH (106 DAS)): 39.11 b % | percentage of sheath blight disease (%) ([1]; 7 DAA#2 (84 DAS)): 37.90 bc % | percentage of sheath blight disease (%) ([1]; 14 DAA#2 (91 DAS)): 38.71 d % | percentage of sheath blight disease (%) ([1]; 21 DAA#2 (98 DAS)): 39.75 d % | percentage of sheath blight disease (%) ([1]; BA#1 (before 1st spray, 70 DAS)): 26.10 a % | percentage of sheath blight disease (%) ([1]; BA#2 (before 2nd spray, 77 DAS)): 32.67 b % | Yield (kg/ha) ([2]; location L1): 5861.11 kg/ha | Yield (kg/rai) ([2]; location L1): 937.78 kg/rai | Yield (kg/plot) ([2]; location L1): 5.28 kg/plot | Yield (kg/ha) ([2]; location L2): 6638.89 ab kg/ha | Yield (kg/rai) ([2]; location L2): 1062.22 kg/rai | Yield (kg/plot) ([2]; location L2): 5.98 kg/plot
